From the NIST ThermoML archive (doi:10.1016/j.jct.2016.02.016)

Tests used:
[1] = xn = mol fraction of the nth substance listed; conditions: 100 kPa, Liquid; for speed of sound: Frequency=3 MHz, Sing-around technique in a fixed-path interferometer; for mass density: Vibrating tube method
[2] = refractive index (Na D-line) (dimensionless); xn = mol fraction of the nth substance listed; conditions: 100 kPa, Liquid, Standard Abbe refractometry

CC(C)=O [acetone] + CN(C)C=O
Conditions	mass density, [1] [kg/m3]	refractive index, [2]	speed of sound, [1] [m/s]
293.15 K, x2 = 0	790.19	1.35845	1183.6
293.15 K, x2 = 0.0503	799.565	1.36286	1200.1
293.15 K, x2 = 0.1057	809.645	1.3677	1218
293.15 K, x2 = 0.1529	818.017	1.37155	1232.9
293.15 K, x2 = 0.1992	826.191	1.37532	1247.6
293.15 K, x2 = 0.2475	834.489	1.37922	1262.6
293.15 K, x2 = 0.2981	843.136	1.38311	1278.3
293.15 K, x2 = 0.3458	851.059	1.38685	1292.6
293.15 K, x2 = 0.3942	859.037	1.3905	1307.4
293.15 K, x2 = 0.4516	868.376	1.39472	1324.6
293.15 K, x2 = 0.4973	875.647	1.398	1338.1
293.15 K, x2 = 0.5476	883.523	1.40156	1352.9
293.15 K, x2 = 0.599	891.359	1.40511	1367.5
293.15 K, x2 = 0.6521	899.454	1.40867	1382.9
293.15 K, x2 = 0.7051	907.302	1.41226	1397.8
293.15 K, x2 = 0.7538	914.504	1.41537	1411.4
293.15 K, x2 = 0.8063	921.993	1.41877	1425.7
293.15 K, x2 = 0.8441	927.346	1.42113	1436
293.15 K, x2 = 0.9022	935.518	1.42474	1451.7
293.15 K, x2 = 0.9471	941.723	1.42742	1463.7
298.15 K, x2 = 0	784.43	1.35386	1163.6
298.15 K, x2 = 0.05	793.781	1.35901	1180.1
298.15 K, x2 = 0.127	807.814	1.3664	1205.5
298.15 K, x2 = 0.1485	811.673	1.36834	1212.5
298.15 K, x2 = 0.1908	819.252	1.37223	1226.2
298.15 K, x2 = 0.2492	829.349	1.37711	1244.6
298.15 K, x2 = 0.297	837.55	1.38103	1259.6
298.15 K, x2 = 0.3399	844.898	1.38441	1273.1
298.15 K, x2 = 0.3997	854.838	1.38893	1291.5
298.15 K, x2 = 0.4461	862.361	1.39235	1305.3
298.15 K, x2 = 0.4978	870.632	1.39595	1320.8
298.15 K, x2 = 0.549	878.71	1.39951	1336.2
298.15 K, x2 = 0.5893	884.968	1.40233	1348.1
298.15 K, x2 = 0.6413	892.941	1.40581	1363.3
298.15 K, x2 = 0.6822	898.928	1.40851	1374.7
298.15 K, x2 = 0.7435	908.066	1.41236	1392.3
298.15 K, x2 = 0.7945	915.398	1.41552	1406.4
298.15 K, x2 = 0.8342	921.109	1.41805	1417.5
298.15 K, x2 = 0.8801	927.621	1.4209	1430.1
298.15 K, x2 = 0.9377	935.649	1.42451	1445.8
303.15 K, x2 = 0	778.63	–	1139.9
303.15 K, x2 = 0.0571	789.325	–	1159
303.15 K, x2 = 0.1075	798.734	–	1175.8
303.15 K, x2 = 0.148	805.999	–	1188.9
303.15 K, x2 = 0.2001	815.316	–	1205.7
303.15 K, x2 = 0.2528	824.518	–	1222.4
303.15 K, x2 = 0.3003	832.657	–	1237.3
303.15 K, x2 = 0.3487	840.866	–	1252.5
303.15 K, x2 = 0.392	848.12	–	1265.8
303.15 K, x2 = 0.4547	858.369	–	1284.8
303.15 K, x2 = 0.4991	865.505	–	1298.1
303.15 K, x2 = 0.5422	872.357	–	1310.9
303.15 K, x2 = 0.6046	882.041	–	1329.2
303.15 K, x2 = 0.6507	889.133	–	1342.6
303.15 K, x2 = 0.6986	896.27	–	1356.3
303.15 K, x2 = 0.7493	903.843	–	1370.7
303.15 K, x2 = 0.7975	910.848	–	1384.2
303.15 K, x2 = 0.8442	917.613	–	1397.1
303.15 K, x2 = 0.8972	925.06	–	1411.5
303.15 K, x2 = 0.9411	931.137	–	1423.4

CCC(C)=O [butanone] + CN(C)C=O
Conditions	mass density, [1] [kg/m3]	refractive index, [2]	speed of sound, [1] [m/s]
293.15 K, x2 = 0	805.06	1.37872	1212.6
293.15 K, x2 = 0.0482	811.508	1.3812	1224.5
293.15 K, x2 = 0.1051	819.281	1.3841	1238.6
293.15 K, x2 = 0.148	825.263	1.38629	1249.6
293.15 K, x2 = 0.1915	831.169	1.38843	1262.8
293.15 K, x2 = 0.253	839.789	1.39163	1276.1
293.15 K, x2 = 0.3008	846.349	1.39408	1288.2
293.15 K, x2 = 0.3386	851.673	1.39604	1298
293.15 K, x2 = 0.3915	859.222	1.39872	1311.8
293.15 K, x2 = 0.4432	–	1.40144	–
293.15 K, x2 = 0.4887	873.095	1.40384	1337.4
293.15 K, x2 = 0.5514	882.097	–	1354.1
293.15 K, x2 = 0.5536	–	1.40712	–
293.15 K, x2 = 0.6017	889.386	1.40972	1367.5
293.15 K, x2 = 0.6519	896.759	1.41237	1381.2
293.15 K, x2 = 0.7023	904.135	1.41495	1394.9
293.15 K, x2 = 0.7525	911.634	1.41752	1408.8
293.15 K, x2 = 0.8002	918.668	1.42009	1421.7
293.15 K, x2 = 0.8492	926.05	1.42274	1435.2
293.15 K, x2 = 0.9032	934.175	1.42553	1450.2
293.15 K, x2 = 0.9477	940.9	1.42785	1462.4
298.15 K, x2 = 0	799.78	1.37605	1191.5
298.15 K, x2 = 0.0519	806.811	1.37886	1204.4
298.15 K, x2 = 0.1048	814.011	1.38152	1217.5
298.15 K, x2 = 0.1506	820.379	1.38397	1229.3
298.15 K, x2 = 0.1948	826.51	1.38631	1240.5
298.15 K, x2 = 0.2482	834.008	1.38913	1254.4
298.15 K, x2 = 0.3032	841.593	1.39213	1268.4
298.15 K, x2 = 0.3543	848.769	1.39479	1281.6
298.15 K, x2 = 0.3962	854.829	1.39697	1292.8
298.15 K, x2 = 0.4495	862.429	1.39982	1306.9
298.15 K, x2 = 0.4916	868.442	1.40199	1318
298.15 K, x2 = 0.5536	877.384	1.40522	1334.6
298.15 K, x2 = 0.5946	883.427	1.40739	1345.8
298.15 K, x2 = 0.6572	892.579	1.41063	1362.3
298.15 K, x2 = 0.7034	899.388	1.41301	1375.5
298.15 K, x2 = 0.7461	905.863	1.41516	1387.6
298.15 K, x2 = 0.7965	913.261	1.41779	1401.3
298.15 K, x2 = 0.8488	921.083	1.42048	1415.8
298.15 K, x2 = 0.894	928.027	1.42276	1428.6
298.15 K, x2 = 0.9427	935.405	1.42542	1442.1
303.15 K, x2 = 0	794.55	1.37351	1172
303.15 K, x2 = 0.0496	801.341	1.37623	1184.6
303.15 K, x2 = 0.1068	809.288	1.37911	1199.1
303.15 K, x2 = 0.1478	814.925	1.38113	1209.5
303.15 K, x2 = 0.1836	819.8	1.38314	1218.5
303.15 K, x2 = 0.2521	829.427	1.38686	1236.4
303.15 K, x2 = 0.2943	835.351	1.38911	1248.2
303.15 K, x2 = 0.3532	843.706	1.39202	1262.8
303.15 K, x2 = 0.3938	849.516	1.39409	1273.5
303.15 K, x2 = 0.4538	858.11	1.39728	1289.4
303.15 K, x2 = 0.4969	864.319	1.39967	1301.1
303.15 K, x2 = 0.5486	871.924	1.40242	1315.5
303.15 K, x2 = 0.6028	879.882	1.40517	1330.1
303.15 K, x2 = 0.6517	886.955	1.4078	1343.2
303.15 K, x2 = 0.7023	894.541	1.4105	1357.4
303.15 K, x2 = 0.7483	901.328	1.41287	1369.9
303.15 K, x2 = 0.7995	908.942	1.41553	1384.1
303.15 K, x2 = 0.8514	916.844	1.41823	1399
303.15 K, x2 = 0.8982	923.832	1.42066	1410.9
303.15 K, x2 = 0.946	931.082	1.4232	1425.2
